The text below walks through data of patent US7671054B1, “Reverse-turn mimetics and method relating thereto” (Choongwae Pharma Corporation, priority 2001, dated 2010).

In the experiment the test system is TCF4/β-catenin transcription (TOPFlash) in SW480 cells. Nature of the experiment: Reporter gene assay (TOPFlash luciferase). Format: cell-based. Conditions: Homo sapiens, SW480, Table 4; Reporter gene assay as described in Example 6; read-out: IC50. In short, it runs like this: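 SW480 cells transiently co-transfected with TOPFlash and pRL-null (4:1 µg) using Superfect, then reseeded at 3×10^4 cells/well and incubated overnight at 37 °C. Compound treatment lasted 24 h before luciferase read-out.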
By IC50 is commonly meant the concentration needed to halve the response being measured. `CCN1CC(=O)N2[C@@H](Cc3ccc(O)cc3)C(=O)N(Cc3ccc(Cl)c(N(C)C)c3)C[C@@H]2N1C(=O)NCc1ccccc1` [Compound 125]: the IC50 came out at 9.8 ± 0.7 µM.

As for `C=CCN1CC(=O)N2[C@@H](Cc3ccc(O)cc3)C(=O)N(Cc3ccc4[nH]nnc4c3)C[C@@H]2N1C(=O)NCc1ccccc1` [Compound 136], the IC50 came out at 28 ± 2.9 µM.

With `CN(C)c1cccc(F)c1CN1C[C@H]2N(C(=O)CN(C)N2C(=O)NCc2ccccc2)[C@@H](Cc2ccc(O)cc2)C1=O` [Compound 42], the IC50 turned out to be 18.2 µM.

In the case of `CN1CC(=O)N2[C@@H](CN(Cc3cccc4ccccc34)C(=O)[C@H]2c2ccc(O)cc2)N1C(=O)NCc1ccccc1` [Compound 36], the IC50 is 12.5 µM.

Consider `CN1CC(=O)N2[C@@H](Cc3ccc(O)cc3)C(=O)N(Cc3ccc4cnn(Cc5ccccc5N)c4c3)C[C@@H]2N1C(=O)NCc1ccccc1` [Compound 86], for which the 50% inhibitory concentration (IC50) is 9.9 ± 2.6 µM.

On to `C[C@H](c1ccc(F)cc1F)N1CC2N(C(=O)CN(C)N2C(=O)NCc2ccccc2)[C@@H](Cc2ccc(O)cc2)C1=O` (stereo partly drawn) [Compound 195], for which the concentration for half-maximal inhibition (IC50) turned out to be 22.3 ± 2.3 µM.

Regarding `C=CCN1CC(=O)N2[C@@H](Cc3ccc(O)cc3)C(=O)N(Cc3ccc(F)cc3F)[C@@H](C)[C@@H]2N1C(=O)NCc1ccccc1` [Compound 177], the 50% inhibitory concentration (IC50) stood at 5.3 ± 0.4 µM.

Regarding `CN1CC(=O)N2C(CN(Cc3cc(F)ccc3F)C(=O)[C@@H]2Cc2ccc(O)cc2)N1C(=O)NCc1ccccc1` (stereo partly drawn) [Compound 14], the concentration for half-maximal inhibition (IC50) is 17.7 µM.

In the case of `CCN(CC)c1cc(F)ccc1[C@H](C)N1C[C@H]2N(C(=O)CN(C)N2C(=O)NCc2ccccc2)[C@@H](Cc2ccc(O)cc2)C1=O` [Compound 64], the IC50 is 25.3 ± 6.6 µM.

In the case of `C=C(C)CN1CC(=O)N2[C@@H](Cc3ccc(O)cc3)C(=O)N(Cc3ccc(Cl)c4cccnc34)C[C@@H]2N1C(=O)NCc1ccccc1` [Compound 149], the IC50 turned out to be 31 ± 6.4 µM.

For `C=CCN1CC(=O)N2[C@@H](Cc3ccc(O)c(F)c3)C(=O)N(Cc3cccc4scnc34)C[C@@H]2N1C(=O)NCc1ccccc1` [Compound 216], the IC50 was 1.6 ± 0.2 µM.

As for `CN(C1CC1)C1CC=CC=C1CN1C[C@H]2N(C(=O)CN(C)N2C(=O)NCc2ccccc2)[C@@H](Cc2ccc(O)cc2)C1=O` (stereo partly drawn) [Compound 53], the concentration for half-maximal inhibition (IC50) was 9 ± 1.5 µM.

As to `C#CCn1cc2cccc(CN3C[C@H]4N(C(=O)CN(C)N4C(=O)NCc4ccccc4)[C@@H](Cc4ccc(O)cc4)C3=O)c2n1` [Compound 106], the IC50 was determined as 2.6 ± 0.2 µM.

On to `C=CCN1CCN2[C@@H](Cc3ccc(O)cc3)C(=O)N(Cc3ccc(OC)cc3OC)C[C@@H]2N1C(=O)NCc1ccccc1` [Compound 213], for which the IC50 was determined as 1.7 ± 0.3 µM.

As to `Cc1ccc(CC2C(=O)N(CCc3ccccc3)CC3N2C(=O)CN(C)N3C(=O)Nc2ccc(C(F)(F)F)cc2)cc1` (stereo not drawn) [Compound 2], the IC50 was found to be 12.6 µM.

As for `C#CCN1CC(=O)N2[C@@H](Cc3ccc(O)cc3)C(=O)N(Cc3cccc4c3cnn4CCN3CCOCC3)C[C@@H]2N1C(=O)NCc1ccccc1` [Compound 112], the IC50 stood at 4.1 ± 0.8 µM.

`C=CCN1CC(=O)N2[C@@H](Cc3ccc(O)cc3)C(=O)N(Cc3ccc(Cl)c4cccnc34)C[C@@H]2N1C(=O)NCc1ccccc1` [Compound 137]: the IC50 was determined as 0.6 ± 0.1 µM.

`C#CCn1ncc2cccc(CN3C[C@H]4N(C(=O)CN(C)N4C(=O)NCc4ccccc4)[C@@H](Cc4ccc(O)cc4)C3=O)c21` [Compound 105]: the IC50 turned out to be 16.6 ± 2.7 µM.

Consider `CC(C)N1CC(=O)N2[C@@H](Cc3ccc(O)cc3)C(=O)N(Cc3ccc(F)cc3F)C[C@@H]2N1C(=O)NCc1ccccc1` [Compound 176], for which the IC50 was determined as 4 ± 0.4 µM.

Consider `CN1CC(=O)N2[C@@H](Cc3ccc(O)cc3)C(=O)N(Cc3ccc(F)c4ccccc34)C[C@@H]2N1C(=O)NCc1ccccc1` [Compound 25], for which the IC50 was 3 µM.

In the case of `CC(C)N(C)c1cccc([C@H](C)N2C[C@H]3N(C(=O)CN(C)N3C(=O)NCc3ccccc3)[C@@H](Cc3ccc(O)cc3)C2=O)c1` [Compound 66], the half-inhibitory concentration (IC50) turned out to be 11.8 µM.

As to `CN1CC(=O)N2[C@@H](Cc3ccc(O)cc3)C(=O)N(Cc3cccc4cnn(Cc5cccc(N)c5)c34)C[C@@H]2N1C(=O)NCc1ccccc1` [Compound 92], the IC50 stood at 3.8 ± 1.2 µM.

`CN1CC(=O)N2[C@@H](Cc3ccc(O)cc3)C(=O)N(Cc3ccc4cn[nH]c4c3)C[C@@H]2N1C(=O)NCc1ccccc1` [Compound 89]: the IC50 was determined as 13.9 ± 0.9 µM.

As to `CCCN1CC(=O)N2[C@@H](Cc3ccc(O)cc3)C(=O)N(Cc3ccc(Cl)c4cccnc34)C[C@@H]2N1C(=O)NCc1ccccc1` [Compound 148], the half-maximal inhibitory concentration (IC50) was found to be 2.6 ± 0.3 µM.

With `C=CCN1CC(=O)N2[C@@H](Cc3ccc(OP(=O)(O)O)cc3)C(=O)N(Cc3ccc4c(c3)OCCO4)C[C@@H]2N1C(=O)NCc1ccccc1` [Compound 212], the IC50 was determined as 1.3 ± 0.3 µM.

Take `C=CCN1CC(=O)N2[C@@H](CN([C@H](C)c3ccc(Cl)c4cccnc34)C(=O)[C@@H]2Cc2ccc(O)cc2)N1C(=O)NCc1ccccc1` [Compound 189]: the IC50 worked out at 8.7 ± 0.4 µM.

On to `CN1CC(=O)N2C(CN(Cc3cccc(Cl)c3)C(=O)[C@@H]2Cc2ccc(O)cc2)N1C(=O)NCc1ccccc1` (stereo partly drawn) [Compound 18], for which the IC50 amounted to 3.3 µM.

As for `CN1CC(=O)N2[C@@H](Cc3ccc(O)cc3)C(=O)N(Cc3cccc4nccnc34)C[C@@H]2N1C(=O)NCc1ccccc1` [Compound 34], the IC50 came out at 4.4 µM.

With `CCN1CC(=O)N2[C@@H](Cc3ccc(O)cc3)C(=O)N(Cc3cccc(N4CCOCC4)c3)C[C@@H]2N1C(=O)NCc1ccccc1` [Compound 123], the concentration for half-maximal inhibition (IC50) stood at 11.7 ± 1 µM.

With `C#CCNC(=O)c1ccccc1Cn1ncc2c(CN3C[C@H]4N(C(=O)CN(C)N4C(=O)NCc4ccccc4)[C@@H](Cc4ccc(O)cc4)C3=O)cccc21` [Compound 107], the concentration for half-maximal inhibition (IC50) was 2.7 ± 0.3 µM.

For `CN(Cc1ccccc1N)c1cccc(CN2C[C@H]3N(C(=O)CN(C)N3C(=O)NCc3ccccc3)[C@@H](Cc3ccc(O)cc3)C2=O)c1` [Compound 90], the IC50 is 3.9 µM.

Consider `CN1CC(=O)N2[C@@H](Cc3ccc(O)cc3)C(=O)N(Cc3cccc(N4CCCCC4)c3)C[C@@H]2N1C(=O)NCc1ccccc1` [Compound 71], for which the IC50 amounted to 6.5 ± 0.7 µM.

As to `C=CCN1CC(=O)N2[C@@H](Cc3ccc(O)cc3)C(=O)N(Cc3ccc(OC)cc3)C[C@@H]2N1C(=O)NCc1ccccc1` [Compound 208], the IC50 was 1.6 ± 0.4 µM.

In the case of `CCCN1CC(=O)N2[C@@H](Cc3ccc(O)cc3)C(=O)N(Cc3ccc(Cl)c(N(C)C)c3)C[C@@H]2N1C(=O)NCc1ccccc1` [Compound 126], the IC50 is 10.3 ± 1.5 µM.

As to `C#CCN1CC(=O)N2[C@@H](Cc3ccc(O)cc3)C(=O)N(Cc3ccc4c(c3)OCCO4)C[C@@H]2N1C(=O)NCc1ccccc1` [Compound 135], the 50% inhibitory concentration (IC50) was determined as 2.4 ± 0.7 µM.

Turning to `C[C@H]1[C@H]2N(C(=O)CN(C)N2C(=O)NCc2ccccc2)[C@@H](Cc2ccc(O)cc2)C(=O)N1Cc1ccc(Cl)c(N(C)C)c1` [Compound 80], the IC50 is 7.9 ± 2 µM.

As to `CN1CC(=O)N2[C@@H](Cc3ccc(O)cc3)C(=O)N(Cc3cccc4ccccc34)C[C@@H]2N1C(=S)NCc1ccccc1` [Compound 35], the concentration for half-maximal inhibition (IC50) is 11.4 µM.

Regarding `COc1ccc(CN2CC3N(C(=O)CN(C)N3C(=O)NCc3ccccc3)[C@@H](Cc3ccc(O)cc3)C2=O)cc1` (stereo partly drawn) [Compound 22], the half-inhibitory concentration (IC50) amounted to 10.4 µM.

For the molecule `C=CCN1CC(=O)N2[C@@H](Cc3ccc(O)cc3)C(=O)N(Cc3ccc4ncsc4c3)C[C@@H]2N1C(=O)NCc1ccccc1` [Compound 142], the IC50 is 1.6 ± 0.4 µM.

For the molecule `C#CCn1cc2c(CN3C[C@H]4N(C(=O)CN(C)N4C(=O)NCc4ccccc4)[C@@H](Cc4ccc(O)cc4)C3=O)cccc2n1` [Compound 96], the 50% inhibitory concentration (IC50) came out at 8.1 ± 0.9 µM.

Regarding `CCCN(C)c1cccc(CN2C[C@H]3N(C(=O)CN(C)N3C(=O)NCc3ccccc3)[C@@H](Cc3ccc(O)cc3)C2=O)c1` [Compound 55], the IC50 came to 7.2 ± 1.4 µM.

Take `C=CCN1CC(=O)N2[C@@H](CN([C@H](C)c3ccc(F)cc3F)C(=O)[C@@H]2Cc2ccc(O)cc2)N1C(=O)NCc1ccccc1` [Compound 188]: the IC50 turned out to be 4.4 ± 0.2 µM.

In the case of `CN1CC(=O)N2[C@@H](Cc3ccc(O)cc3)C(=O)N(Cc3cccc(N4CCCC4)c3)C[C@@H]2N1C(=O)NCc1ccccc1` [Compound 63], the concentration for half-maximal inhibition (IC50) came out at 4.1 ± 0.5 µM.

Consider `CN1CC(=O)N2[C@@H](Cc3ccc(O)cc3)C(=O)N(Cc3ccc(F)cc3F)[C@@H](COC=O)[C@@H]2N1C(=O)NCc1ccccc1` [Compound 81], for which the IC50 was found to be 66.1 ± 6.8 µM.

As to `C[C@H]1[C@H]2N(C(=O)CN(C)N2C(=O)NCc2ccccc2)[C@@H](Cc2ccc(O)cc2)C(=O)N1Cc1cccc(N(C)C)c1` [Compound 78], the concentration for half-maximal inhibition (IC50) is 4.3 ± 0.9 µM.

For the molecule `C=CCN1CC(=O)N2[C@@H](Cc3ccc(O)cc3)C(=O)N(Cc3cccc4sc(Cl)nc34)C[C@@H]2N1C(=O)NCc1ccccc1` [Compound 217], the IC50 was < 1.6 µM.

With `C=CCN1CC(=O)N2[C@@H](Cc3ccc(O)cc3)C(=O)N(Cc3ccc(F)c(F)c3)C[C@@H]2N1C(=O)NCc1ccccc1` [Compound 178], the IC50 was 1.2 ± 0.1 µM.

Consider `C=CCN1CC(=O)N2[C@@H](Cc3ccc(O)cc3)C(=O)N(Cc3cccc(N4CCOCC4)c3)C[C@@H]2N1C(=O)NCc1ccccc1` [Compound 127], for which the half-inhibitory concentration (IC50) was found to be 1.8 ± 0.2 µM.

For `CN(C)c1cc(Cl)ccc1CN1C[C@H]2N(C(=O)CN(C)N2C(=O)NCc2ccccc2)[C@@H](Cc2ccc(O)cc2)C1=O` [Compound 45], the half-maximal inhibitory concentration (IC50) worked out at 2.2 µM.

In the case of `C=CCN1CC(=O)N2[C@@H](Cc3ccc(O)cc3)C(=O)N(Cc3ccc(F)cc3F)C[C@@H]2N1C(=O)NCc1ccccc1` [Compound 143], the half-maximal inhibitory concentration (IC50) is 1.3 ± 0.2 µM.

Regarding `CN(Cc1ccccc1)c1cccc(CN2C[C@H]3N(C(=O)CN(C)N3C(=O)NCc3ccccc3)[C@@H](Cc3ccc(O)cc3)C2=O)c1` [Compound 79], the concentration for half-maximal inhibition (IC50) turned out to be 16.5 ± 4.8 µM.

Regarding `C#CCN1CC(=O)N2[C@@H](Cc3ccc(O)cc3)C(=O)N(Cc3ccc(F)cc3F)C[C@@H]2N1C(=O)NCc1ccccc1` [Compound 144], the IC50 stood at 2.1 ± 0.2 µM.

With `CN1CC(=O)N2[C@@H](Cc3ccc(O)cc3)C(=O)N(Cc3ccccc3N3CCOCC3)C[C@@H]2N1C(=O)NCc1ccccc1` [Compound 97], the IC50 amounted to 12.6 ± 1.2 µM.

Take `C=CCN1CC(=O)N2[C@@H](Cc3ccc(O)cc3)C(=O)N(Cc3ccc(Cl)c(Cl)c3)C[C@@H]2N1C(=O)NCc1ccccc1` [Compound 180]: the IC50 was determined as 1.3 ± 0.1 µM.
